From patent publication EP4745137A1 (Gluetacs Therapeutics (Shanghai) Co., Ltd., priority 2023, dated 2025)

Key:
IKZF2 = target: T1, IKZF2 (Homo sapiens, UniProt Q96SW2+Q9UKS7); assay: Western-blot assay of substrate protein degradation in hPBMCs, IKZF2; assay type: cell-based; details: 24 hours of compound treatment, compounds tested at 50 nM and 500 nM (concentration of the table not stated)
T1 construct: endogenous in cells; host or cells: hPBMCs (Milecell Biotechnologies)

[1] = system: Human acute T lymphocytic leukemia cells (Molt-4); assay: Tumor cell proliferation inhibition (CellTiter-Meiluncell Luminescent Cell Viability Assay), Molt-4; details: MOLT-4, 96 h, read-out: inhibitory activity (IC50, nM) against tumor cells proliferation, Molt 4
IKZF1 = target: T2, IKZF1 (Homo sapiens, UniProt Q13422+Q96SW2); assay: Western-blot assay of substrate protein degradation in hPBMCs, IKZF1; assay type: cell-based; details: 24 hours of compound treatment, compounds tested at 50 nM and 500 nM (concentration of the table not stated)
T2 construct: endogenous in cells; host or cells: hPBMCs (Milecell Biotechnologies)

MM.1R = assay: Tumor cell proliferation inhibition (CellTiter-Meiluncell Luminescent Cell Viability Assay), MM.1R; details: Homo sapiens, 96 h, read-out: inhibitory activity (IC50, nM) against tumor cells proliferation, MM.1R
Experimental: (§1) The tumor cells used herein were cultured in a cell culture medium listed in table 2 at 37°C in an incubator with 5% CO2. Prior to experimentation, all cell lines used were correctly identified by STR profiling, and tested negative for mycoplasma contamination using a mycoplasma detection kit through routine screenings.
(§2) On the following day, the test compounds of the present disclosure were subjected to serial dilution. […] Subsequently, 0.5 µL of the test compound dilution was transferred into the 96-well plate containing the cells, with each well containing 100 µL of cell culture medium. […] Into the 96-well plate, the diluted test compounds and corresponding detection reagents were added, resulting in final test compound concentrations of 500 nM and 10 nM, respectively. The experimental procedure is described below using the diluted 2 µM test compound as an example.
(§3) After the cells were treated with the compounds of the present disclosure for a specified period (the treatment durations were shown in Table 3), the cell viability assay reagent was added to the culture medium according to the kit's instructions to determine cell viability. […] All controls were treated using the same procedure as the compounds of the present disclosure. The growth inhibition curves for the compounds of the present disclosure were plotted using Prism GraphPad software, and the IC50 values were calculated therefrom.

Vcap = assay: Tumor cell proliferation inhibition (CellTiter-Meiluncell Luminescent Cell Viability Assay), Vcap; details: Homo sapiens, 96 h, read-out: inhibitory activity (IC50, nM) against tumor cells proliferation, Vcap
IKZF3 = target: T3, IKZF3 (Homo sapiens, UniProt Q96SW2+Q9UKT9); assay: Western-blot assay of substrate protein degradation in hPBMCs, IKZF3; assay type: cell-based; details: 24 hours of compound treatment, compounds tested at 50 nM and 500 nM (concentration of the table not stated)
T3 construct: endogenous in cells; host or cells: hPBMCs (Milecell Biotechnologies)

CAL-62 = assay: Tumor cell proliferation inhibition (CellTiter-Meiluncell Luminescent Cell Viability Assay), CAL-62; details: Homo sapiens, CAL-62, 96 h, read-out: inhibitory activity (IC50, nM) against tumor cells proliferation, CAL-62
SW620 = assay: Tumor cell proliferation inhibition (CellTiter-Meiluncell Luminescent Cell Viability Assay), SW620; details: Homo sapiens, SW-620, 96 h, read-out: inhibitory activity (IC50, nM) against tumor cells proliferation, SW620
WEE1 = target: T4, WEE1 (Homo sapiens, UniProt P30291+Q96SW2); assay: Western-blot assay of substrate protein degradation in hPBMCs, WEE1; assay type: cell-based; details: 24 hours of compound treatment, compounds tested at 50 nM and 500 nM (concentration of the table not stated)
T4 construct: endogenous in cells; host or cells: hPBMCs (Milecell Biotechnologies)

CK1α = target: T5, CK1α (Homo sapiens, UniProt P48729+Q96SW2); assay: Western-blot assay of substrate protein degradation in hPBMCs, CK1α; assay type: cell-based; details: 24 hours of compound treatment, compounds tested at 50 nM and 500 nM (concentration of the table not stated)
T5 construct: endogenous in cells; host or cells: hPBMCs (Milecell Biotechnologies)

GSPT1 = target: T6, GSPT1 (Homo sapiens, UniProt P15170+Q96SW2); assay: Western-blot assay of substrate protein degradation in hPBMCs, GSPT1; assay type: cell-based; details: 24 hours of compound treatment, compounds tested at 50 nM and 500 nM (concentration of the table not stated)
T6 construct: endogenous in cells; host or cells: hPBMCs (Milecell Biotechnologies)

Jurkat = assay: Tumor cell proliferation inhibition (CellTiter-Meiluncell Luminescent Cell Viability Assay), Jurkat; details: Homo sapiens, 96 h, read-out: inhibitory activity (IC50, nM) against tumor cells proliferation, Jurkat
Experimental: as §1, §2, §3

[2] = target: T7, human Cereblon WT GST-tagged protein (Homo sapiens, UniProt Q96SW2); assay: CRBN-binding affinity by HTRF (CEREBLON BINDING kit); details: HTRF inhibitory activity, CEREBLON BINDING kit; read-out: HTRF IC50
T7 construct: purchased CISBIO 64BDCRBNPEH

CCRF-CEM = assay: Tumor cell proliferation inhibition (CellTiter-Meiluncell Luminescent Cell Viability Assay), CCRF-CEM; details: Homo sapiens, 96 h, read-out: inhibitory activity (IC50, nM) against tumor cells proliferation, CCRF-CEM
NCI-H1975 = assay: Tumor cell proliferation inhibition (CellTiter-Meiluncell Luminescent Cell Viability Assay), NCI-H1975; details: Homo sapiens, NCI-H1975, 96 h, read-out: inhibitory activity (IC50, nM) against tumor cells proliferation, H1975
MGC803 = assay: Tumor cell proliferation inhibition (CellTiter-Meiluncell Luminescent Cell Viability Assay), MGC803; details: Homo sapiens, MGC-803, 96 h, read-out: inhibitory activity (IC50, nM) against tumor cells proliferation, MGC803
Experimental: as §1
On the following day, the test compounds of the present disclosure were subjected to serial dilution. […] Subsequently, 0.5 µL of the test compound dilution was transferred into the 96-well plate containing the cells, with each well containing 100 µL of cell culture medium. […] Into the 96-well plate, the diluted test compounds and corresponding detection reagents were added, resulting in final test compound concentrations of 500 nM and 10 nM, respectively.
as §3

T2 sequence (Q13422 whole entry): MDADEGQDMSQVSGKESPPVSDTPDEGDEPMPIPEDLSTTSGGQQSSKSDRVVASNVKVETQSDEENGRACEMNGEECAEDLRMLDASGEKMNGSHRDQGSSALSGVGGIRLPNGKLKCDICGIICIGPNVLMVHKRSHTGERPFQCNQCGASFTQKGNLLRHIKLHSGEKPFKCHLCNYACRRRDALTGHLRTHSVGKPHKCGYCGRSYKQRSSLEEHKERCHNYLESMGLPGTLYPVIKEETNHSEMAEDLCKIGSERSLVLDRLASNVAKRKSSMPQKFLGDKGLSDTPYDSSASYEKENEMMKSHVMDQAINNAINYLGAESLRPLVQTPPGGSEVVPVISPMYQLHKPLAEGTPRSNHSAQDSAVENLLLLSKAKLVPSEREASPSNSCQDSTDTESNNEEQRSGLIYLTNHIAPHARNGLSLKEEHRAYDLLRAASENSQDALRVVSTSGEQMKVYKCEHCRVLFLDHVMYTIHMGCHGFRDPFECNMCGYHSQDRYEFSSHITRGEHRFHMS
T2 sequence (Q96SW2 whole entry): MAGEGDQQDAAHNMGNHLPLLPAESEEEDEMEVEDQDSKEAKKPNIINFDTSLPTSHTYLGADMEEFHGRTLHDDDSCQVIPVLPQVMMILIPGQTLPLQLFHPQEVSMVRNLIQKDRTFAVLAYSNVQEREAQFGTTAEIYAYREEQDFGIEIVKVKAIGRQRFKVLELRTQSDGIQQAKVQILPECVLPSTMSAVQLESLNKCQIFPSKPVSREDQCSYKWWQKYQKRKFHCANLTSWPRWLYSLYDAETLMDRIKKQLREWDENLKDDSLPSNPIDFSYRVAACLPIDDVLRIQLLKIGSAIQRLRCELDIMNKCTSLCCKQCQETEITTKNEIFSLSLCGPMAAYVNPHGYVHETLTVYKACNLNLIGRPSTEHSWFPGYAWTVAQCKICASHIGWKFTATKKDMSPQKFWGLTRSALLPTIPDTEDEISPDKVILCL
T2 sequence (Q16531 whole entry partner): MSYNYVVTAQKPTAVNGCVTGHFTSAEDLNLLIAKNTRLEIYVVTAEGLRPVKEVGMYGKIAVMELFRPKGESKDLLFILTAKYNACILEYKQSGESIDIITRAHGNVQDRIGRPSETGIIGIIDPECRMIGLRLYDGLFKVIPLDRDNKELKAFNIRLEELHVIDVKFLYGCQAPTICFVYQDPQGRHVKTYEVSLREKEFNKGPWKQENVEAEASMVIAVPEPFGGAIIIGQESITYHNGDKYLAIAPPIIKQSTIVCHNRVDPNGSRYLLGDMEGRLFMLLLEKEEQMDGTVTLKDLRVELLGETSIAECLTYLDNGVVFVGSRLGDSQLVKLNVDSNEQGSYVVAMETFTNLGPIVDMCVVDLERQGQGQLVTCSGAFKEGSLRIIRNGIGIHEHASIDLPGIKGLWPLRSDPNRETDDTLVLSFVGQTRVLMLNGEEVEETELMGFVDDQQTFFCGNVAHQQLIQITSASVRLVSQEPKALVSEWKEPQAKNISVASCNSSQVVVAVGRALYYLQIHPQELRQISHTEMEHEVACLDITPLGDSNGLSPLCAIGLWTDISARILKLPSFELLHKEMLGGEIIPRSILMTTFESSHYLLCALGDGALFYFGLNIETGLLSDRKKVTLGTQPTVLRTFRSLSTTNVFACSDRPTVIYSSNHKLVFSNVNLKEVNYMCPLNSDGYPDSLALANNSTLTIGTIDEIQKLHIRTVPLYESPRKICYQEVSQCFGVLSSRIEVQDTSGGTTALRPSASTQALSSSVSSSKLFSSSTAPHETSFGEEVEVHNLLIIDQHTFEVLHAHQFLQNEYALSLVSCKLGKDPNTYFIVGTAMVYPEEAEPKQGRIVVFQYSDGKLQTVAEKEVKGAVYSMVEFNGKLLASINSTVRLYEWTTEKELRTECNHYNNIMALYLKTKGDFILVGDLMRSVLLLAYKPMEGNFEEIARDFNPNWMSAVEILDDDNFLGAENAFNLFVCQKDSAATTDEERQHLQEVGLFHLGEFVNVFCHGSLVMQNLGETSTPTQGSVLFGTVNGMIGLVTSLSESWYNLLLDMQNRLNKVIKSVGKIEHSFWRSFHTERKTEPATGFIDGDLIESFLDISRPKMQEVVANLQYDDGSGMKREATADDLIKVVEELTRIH
T7 sequence (Q96SW2 whole entry): as the sequence (Q96SW2 whole entry) above
T6 sequence (P15170 whole entry): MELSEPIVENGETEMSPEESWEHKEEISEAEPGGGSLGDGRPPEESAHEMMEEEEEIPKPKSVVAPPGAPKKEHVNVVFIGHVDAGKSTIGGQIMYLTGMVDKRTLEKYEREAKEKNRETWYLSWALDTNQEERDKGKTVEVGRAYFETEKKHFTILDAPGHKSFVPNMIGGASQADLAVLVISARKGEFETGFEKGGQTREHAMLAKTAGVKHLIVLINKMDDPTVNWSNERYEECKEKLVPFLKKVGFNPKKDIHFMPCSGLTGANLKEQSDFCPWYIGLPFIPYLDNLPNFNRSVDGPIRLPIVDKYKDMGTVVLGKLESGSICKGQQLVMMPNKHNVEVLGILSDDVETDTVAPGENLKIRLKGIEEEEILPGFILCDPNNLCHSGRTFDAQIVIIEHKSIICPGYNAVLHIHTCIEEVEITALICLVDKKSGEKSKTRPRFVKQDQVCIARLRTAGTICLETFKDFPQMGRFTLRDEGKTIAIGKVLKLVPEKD
T6 sequence (Q96SW2 whole entry): as the sequence (Q96SW2 whole entry) above
T6 sequence (Q16531 whole entry partner): as the sequence (Q16531 whole entry partner) above
T4 sequence (P30291 whole entry): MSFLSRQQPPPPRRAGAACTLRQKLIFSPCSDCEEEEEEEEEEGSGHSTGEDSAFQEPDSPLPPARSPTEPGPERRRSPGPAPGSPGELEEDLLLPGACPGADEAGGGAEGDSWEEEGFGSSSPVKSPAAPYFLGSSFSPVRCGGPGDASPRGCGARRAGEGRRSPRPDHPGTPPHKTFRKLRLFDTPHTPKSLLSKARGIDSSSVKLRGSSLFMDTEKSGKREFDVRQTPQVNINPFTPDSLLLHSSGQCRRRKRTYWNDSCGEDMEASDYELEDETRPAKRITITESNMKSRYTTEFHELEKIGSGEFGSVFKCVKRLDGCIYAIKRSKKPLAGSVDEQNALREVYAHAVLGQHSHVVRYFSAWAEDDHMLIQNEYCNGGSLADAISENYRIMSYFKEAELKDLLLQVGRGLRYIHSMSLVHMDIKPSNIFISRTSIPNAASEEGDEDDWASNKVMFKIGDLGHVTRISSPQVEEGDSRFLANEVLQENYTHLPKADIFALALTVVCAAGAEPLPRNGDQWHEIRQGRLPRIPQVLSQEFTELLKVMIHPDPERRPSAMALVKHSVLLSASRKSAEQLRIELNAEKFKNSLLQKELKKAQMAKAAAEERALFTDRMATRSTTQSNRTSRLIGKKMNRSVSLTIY
T4 sequence (Q96SW2 whole entry): as the sequence (Q96SW2 whole entry) above
T4 sequence (Q16531 whole entry partner): as the sequence (Q16531 whole entry partner) above
T5 sequence (P48729 whole entry): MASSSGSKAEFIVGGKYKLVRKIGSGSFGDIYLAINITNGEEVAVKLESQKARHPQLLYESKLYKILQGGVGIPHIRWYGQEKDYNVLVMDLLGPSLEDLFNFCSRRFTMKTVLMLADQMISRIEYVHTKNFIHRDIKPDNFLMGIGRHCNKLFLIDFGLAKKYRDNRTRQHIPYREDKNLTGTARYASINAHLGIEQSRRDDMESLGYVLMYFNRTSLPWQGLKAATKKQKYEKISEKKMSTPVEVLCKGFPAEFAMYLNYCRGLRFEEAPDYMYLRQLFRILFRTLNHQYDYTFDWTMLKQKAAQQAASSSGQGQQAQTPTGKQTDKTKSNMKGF
T5 sequence (Q96SW2 whole entry): as the sequence (Q96SW2 whole entry) above
T5 sequence (Q16531 whole entry partner): as the sequence (Q16531 whole entry partner) above
T3 sequence (Q9UKT9 whole entry): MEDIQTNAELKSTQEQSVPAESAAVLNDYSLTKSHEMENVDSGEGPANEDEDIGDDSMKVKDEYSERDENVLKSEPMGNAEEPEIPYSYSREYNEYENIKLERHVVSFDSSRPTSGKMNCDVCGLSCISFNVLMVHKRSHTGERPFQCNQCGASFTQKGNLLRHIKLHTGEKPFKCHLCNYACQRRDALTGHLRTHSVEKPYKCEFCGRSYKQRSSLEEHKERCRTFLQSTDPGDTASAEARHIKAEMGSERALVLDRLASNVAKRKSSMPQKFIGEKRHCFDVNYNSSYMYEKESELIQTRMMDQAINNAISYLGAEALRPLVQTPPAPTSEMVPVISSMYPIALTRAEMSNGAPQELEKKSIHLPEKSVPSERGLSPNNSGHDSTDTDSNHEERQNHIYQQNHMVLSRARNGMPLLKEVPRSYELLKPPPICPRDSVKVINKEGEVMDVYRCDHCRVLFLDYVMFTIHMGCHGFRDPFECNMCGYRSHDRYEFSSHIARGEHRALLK
T3 sequence (Q96SW2 whole entry): as the sequence (Q96SW2 whole entry) above
T3 sequence (Q16531 whole entry partner): as the sequence (Q16531 whole entry partner) above

Cc1ccsc1C1CCN(Cc2ccc3c(c2)CN(C2CCC(=O)NC2=O)C3=O)CC1 (stereo not shown) [GT-04502, 3-(5-((4-(3-methylthiophen-2-yl)piperidin-1-yl)methyl)-1-oxoisoindolin-2-yl)piperidine-2,6-dione]
IKZF2 substrate protein remaining % (IKZF2): A (0% ≤ substrate protein remaining % ≤ 80%)
IC50 [1]: 10 to 50 nM
IKZF 1 substrate protein remaining % (IKZF1): A (0% ≤ substrate protein remaining % ≤ 80%)
IC50 (MM.1R): 10 to 50 nM
IC50 (Vcap): 50 to 100 nM
IKZF3 substrate protein remaining % (IKZF3): A (0% ≤ substrate protein remaining % ≤ 80%)
IC50 (CAL-62): 10 to 50 nM
IC50 (SW620): 100 to 500 nM
Weel substrate protein remaining % (WEE1): A (0% ≤ substrate protein remaining % ≤ 80%)
CK1a substrate protein remaining % (CK1α): A (0% ≤ substrate protein remaining % ≤ 80%)
GSPT1 substrate protein remaining % (GSPT1): A (0% ≤ substrate protein remaining % ≤ 80%)
IC50 (Jurkat): 10 to 50 nM
IC50 [2]: 500 to 1000 nM
IC50 (CCRF-CEM): 10 to 50 nM

O=C1CCC(N2Cc3cc(CN4CCN(c5nsc6ccccc56)CC4)ccc3C2=O)C(=O)N1 (stereo not shown) [GT-04255, 3-(5-((4-(benzo[d]isothiazol-3-yl)piperazin-1-yl)methyl)-1-oxoisoindolin-2-yl)piperidine-2,6-dione]
IKZF2 substrate protein remaining % (IKZF2): A (0% ≤ substrate protein remaining % ≤ 80%)
IKZF 1 substrate protein remaining % (IKZF1): A (0% ≤ substrate protein remaining % ≤ 80%)
IC50 (Vcap): 500 to 1000 nM
IKZF3 substrate protein remaining % (IKZF3): A (0% ≤ substrate protein remaining % ≤ 80%)
IC50 (CAL-62): 50 to 100 nM
IC50 (SW620): 100 to 500 nM
Weel substrate protein remaining % (WEE1): A (0% ≤ substrate protein remaining % ≤ 80%)
CK1a substrate protein remaining % (CK1α): A (0% ≤ substrate protein remaining % ≤ 80%)
GSPT1 substrate protein remaining % (GSPT1): A (0% ≤ substrate protein remaining % ≤ 80%)
IC50 (Jurkat): 100 to 500 nM
IC50 [2]: 500 to 1000 nM
IC50 (CCRF-CEM): 10 to 50 nM

O=C1CCC(N2Cc3cc(CN4CCN(c5ccc(F)cc5F)CC4)ccc3C2=O)C(=O)N1 (stereo not shown) [GT-04438, 3-(5-((4-(2,4-difluorophenyl)piperazin-1-yl)methyl)-1-oxoisoindolin-2-yl)piperidine-2,6-dione]
IKZF2 substrate protein remaining % (IKZF2): A (0% ≤ substrate protein remaining % ≤ 80%)
IC50 [1]: 10 to 50 nM
IKZF 1 substrate protein remaining % (IKZF1): A (0% ≤ substrate protein remaining % ≤ 80%)
IC50 (MM.1R): 10 to 50 nM
IC50 (Vcap): 50 to 100 nM
IKZF3 substrate protein remaining % (IKZF3): A (0% ≤ substrate protein remaining % ≤ 80%)
IC50 (CAL-62): 10 to 50 nM
IC50 (SW620): 100 to 500 nM
Weel substrate protein remaining % (WEE1): A (0% ≤ substrate protein remaining % ≤ 80%)
CK1a substrate protein remaining % (CK1α): A (0% ≤ substrate protein remaining % ≤ 80%)
GSPT1 substrate protein remaining % (GSPT1): A (0% ≤ substrate protein remaining % ≤ 80%)
IC50 (Jurkat): 10 to 50 nM
IC50 [2]: 500 to 1000 nM
IC50 (CCRF-CEM): 10 to 50 nM
IC50 (NCI-H1975): 500 to 1000 nM

O=C1CCC(N2Cc3cc(CN4CCC(c5ccc(Cl)cc5)CC4)ccc3C2=O)C(=O)N1 (stereo not shown) [GT-04469, 3-(5-((4-(4-chlorophenyl)piperidin-1-yl)methyl)-1-oxoisoindolin-2-yl)piperidine-2,6-dione]
IKZF2 substrate protein remaining % (IKZF2): A (0% ≤ substrate protein remaining % ≤ 80%)
IC50 [1]: 10 to 50 nM
IKZF 1 substrate protein remaining % (IKZF1): A (0% ≤ substrate protein remaining % ≤ 80%)
IC50 (MGC803): 500 to 1000 nM
IC50 (MM.1R): 10 to 50 nM
IC50 (Vcap): 50 to 100 nM
IKZF3 substrate protein remaining % (IKZF3): A (0% ≤ substrate protein remaining % ≤ 80%)
IC50 (CAL-62): 10 to 50 nM
IC50 (SW620): 500 to 1000 nM
Weel substrate protein remaining % (WEE1): A (0% ≤ substrate protein remaining % ≤ 80%)
CK1a substrate protein remaining % (CK1α): A (0% ≤ substrate protein remaining % ≤ 80%)
GSPT1 substrate protein remaining % (GSPT1): A (0% ≤ substrate protein remaining % ≤ 80%)
IC50 (Jurkat): 10 to 50 nM
IC50 [2]: 500 to 1000 nM
IC50 (CCRF-CEM): 5 to 10 nM

O=C1CCC(N2Cc3cc(CN4CCC(c5ccccc5)CC4)ccc3C2=O)C(=O)N1 (stereo not shown) [GT-04465, 3-(1-oxo-5-((4-phenylpiperidin-1-yl)methyl)isoindolin-2-yl)piperidine-2,6-dione]
IKZF2 substrate protein remaining % (IKZF2): A (0% ≤ substrate protein remaining % ≤ 80%)
IC50 [1]: 10 to 50 nM
IKZF 1 substrate protein remaining % (IKZF1): A (0% ≤ substrate protein remaining % ≤ 80%)
IC50 (MGC803): 100 to 500 nM
IC50 (MM.1R): 10 to 50 nM
IC50 (Vcap): 50 to 100 nM
IKZF3 substrate protein remaining % (IKZF3): A (0% ≤ substrate protein remaining % ≤ 80%)
IC50 (CAL-62): 10 to 50 nM
IC50 (SW620): 100 to 500 nM
Weel substrate protein remaining % (WEE1): A (0% ≤ substrate protein remaining % ≤ 80%)
CK1a substrate protein remaining % (CK1α): A (0% ≤ substrate protein remaining % ≤ 80%)
GSPT1 substrate protein remaining % (GSPT1): A (0% ≤ substrate protein remaining % ≤ 80%)
IC50 (Jurkat): 10 to 50 nM
IC50 [2]: 1000 to 1500 nM
IC50 (CCRF-CEM): 10 to 50 nM
IC50 (NCI-H1975): 500 to 1000 nM

O=C1CCC(N2Cc3cc(CN4CCN(c5cccc(F)n5)CC4)ccc3C2=O)C(=O)N1 (stereo not shown) [GT-04498, 3-(5-((4-(6-fluoropyridin-2-yl)piperazin-1-yl)methyl)-1-oxoisoindolin-2-yl)piperidine-2,6-dione]
IKZF2 substrate protein remaining % (IKZF2): A (0% ≤ substrate protein remaining % ≤ 80%)
IC50 [1]: 10 to 50 nM
IKZF 1 substrate protein remaining % (IKZF1): A (0% ≤ substrate protein remaining % ≤ 80%)
IC50 (MM.1R): 50 to 100 nM
IC50 (Vcap): 100 to 500 nM
IKZF3 substrate protein remaining % (IKZF3): A (0% ≤ substrate protein remaining % ≤ 80%)
IC50 (CAL-62): 50 to 100 nM
IC50 (SW620): 500 to 1000 nM
Weel substrate protein remaining % (WEE1): A (0% ≤ substrate protein remaining % ≤ 80%)
CK1a substrate protein remaining % (CK1α): A (0% ≤ substrate protein remaining % ≤ 80%)
GSPT1 substrate protein remaining % (GSPT1): A (0% ≤ substrate protein remaining % ≤ 80%)
IC50 (Jurkat): 10 to 50 nM
IC50 [2]: 500 to 1000 nM
IC50 (CCRF-CEM): 10 to 50 nM

Cc1cscc1C1CCN(Cc2ccc3c(c2)CN(C2CCC(=O)NC2=O)C3=O)CC1 (stereo not shown) [GT-04504, 3-(5-((4-(4-methylthiophen-3-yl)piperidin-1-yl)methyl)-1-oxoisoindolin-2-yl)piperidine-2,6-dione]
IKZF2 substrate protein remaining % (IKZF2): A (0% ≤ substrate protein remaining % ≤ 80%)
IC50 [1]: 10 to 50 nM
IKZF 1 substrate protein remaining % (IKZF1): A (0% ≤ substrate protein remaining % ≤ 80%)
IC50 (MM.1R): 10 to 50 nM
IC50 (Vcap): 50 to 100 nM
IKZF3 substrate protein remaining % (IKZF3): A (0% ≤ substrate protein remaining % ≤ 80%)
IC50 (CAL-62): 10 to 50 nM
IC50 (SW620): 100 to 500 nM
Weel substrate protein remaining % (WEE1): A (0% ≤ substrate protein remaining % ≤ 80%)
CK1a substrate protein remaining % (CK1α): B (80%< substrate protein remaining %≤ 100%)
GSPT1 substrate protein remaining % (GSPT1): A (0% ≤ substrate protein remaining % ≤ 80%)
IC50 (Jurkat): 10 to 50 nM
IC50 [2]: 500 to 1000 nM
IC50 (CCRF-CEM): 10 to 50 nM
